Patent US20050250945A1, “Triazine compounds as inhibitors of bacterial type III protein secretion systems” (priority 2004, published 2005)

How the values were obtained:
Format in all cases: cell-based
[1] = system: SPI1 type III protein secretion system (SopE‘-’Bla secretion); experiment: Primary assay: Type III protein secretion of the chimeric SopE‘-’Bla polypeptide (nitrocefin hydrolysis); settings: Salmonella enterica, read-out: SopE IC50(uM)
Source text: Primary assay: Type III protein secretion of the chimeric SopE‘-’Bla polypeptide by Salmonella enterica. This procedure is a cell-based assay that measures the type III-dependent secretion by Salmonella enterica of a plasmid-encoded chimeric polypeptide whose synthesis can be regulated, and which is endowed with an enzymatic activity that can be monitored colorimetrically by hydrolysis of a substrate that is unable to penetrate into the bacterial cytoplasm within the time constraints of the reaction. Thus, the colorimetric reaction is not influenced by SopE‘-’Bla polypeptide in the bacterial cytoplasm. Instead, it effectively measures the amount of polypeptide that has been secreted from the S. enterica cytoplasm to the extracellular medium via type III system protein secretion.
The SopE‘-’Bla recombinant polypeptide consists of two functionally distinct domains spliced together. The N-terminus domain is encoded by a polynucleotide region specifying the signal for type III secretion of the SopE polypeptide of S. enterica, an effector of the SPI1 type III protein secretion system. The C-terminus domain of SopE‘-’Bla consists of a 263 amino acid peptide sequence that corresponds to the TEM-1 β-lactamase expressed by plasmid pBR322 but without its N-terminal signal sequence. The TEM-1 β-lactamase part of the SopE‘-’Bla chimeric polypeptide is used as a reporter enzyme. It is capable of hydrolyzing nitrocefin resulting in a product whose accumulation can be monitored by colorimetric detection. The secretion of the SopE‘—’Bla chimeric polypeptide from the cytoplasm to the extracellular medium is dependent on type III protein secretion.
For this procedure, cells grown under conditions known to favor a functional SPI1 secretion system are induced for expression of the SopE‘-’Bla protein and grown either in the presence or in the absence of putative inhibitors for determined time. Nitrocefin is then added to the various cultures and its hydrolysis are used for quantitation. An inhibitor of Type III protein secretion is generally a compound that reduces the signal of the enzymatic reaction by decreasing the amount of SopE‘-’Bla secreted into the extracellular medium.

[2] = system: type III protein secretion system of P. aeruginosa PA103 (ExoU secretion); experiment: Tertiary assay: Type III-dependent secretion of ExoU by P. aeruginosa PA103 (SDS-PAGE band quantitation); settings: Pseudomonas aeruginosa; P. aeruginosa PA103, ExoU secreted into extracellular medium
Source text: Tertiary assay: Inhibition of Type III protein secretion of effectors from a Pseudomonas aeruginosa system. Type III protein secretion is used by P. aeruginosa to secrete several essential virulence determinants. One effector of the type III protein secretion system of P. aeruginosa PA103 is the virulence determinants ExoU.
The amount of Type III-dependent secretion of ExoU by P. aeruginosa PA103 can be determined in a cell-based assay by quantification of the 73.9 kDa ExoU protein secreted into the extracellular medium. Such quantitation can be achieved by growing strain PA103 in a deferrated medium in the presence of nitrilotriacetic acid (an inducer of Type III protein secretion in P. aeruginosa) and either in the presence or absence of putative inhibitors. After a prolonged growth period, the cells are sedimented and the supernatants concentrated by ammonium sulfate precipitation. The proteins in the resuspended pellets are separated by electrophoresis on SDS-polyacrylamide gels. After staining gels with Colloidal Blue™, the 73.9 kDa ExoU band is quantitated by scanning through an imager. The effects of inhibitors on the intensity of the ExoU band may be measured relative to that of untreated controls.

[3] = system: SPI1 type III protein secretion system (SipB secretion); experiment: Secondary assay: Type III-dependent protein secretion of the SipB polypeptide (immunoblot); settings: Salmonella enterica, read-out: SipB IC50(uM)
Experimental: Secondary assay: Type III-dependent protein secretion of the SipB polypeptide by S. enterica. The SipB protein of S. enterica is another effector of the SPI1 type III protein secretion system from S. enterica. In this cell-based procedure, the Type III-dependent secretion of SipB from the bacterial cytoplasm to the extracellular medium was measured through its reactivity with a cognate mouse monoclonal.
Salmonella enterica cells growing either in the presence or in the absence of inhibitors are induced for the production of SipB. Following an established period of growth the cells are sedimented and the amount of SipB present in the supernatant is quantified with a scanning imager following application of immunoblot techniques. Detection may employ an anti-SipB mouse monoclonal antibody (e.g., obtained from Jorge Galan, SUNY at Stony Brook, N.Y.) followed by treatment with commercially available sheep anti-mouse polyclonal antibody conjugated with horseradish peroxidase. Thereafter the membrane is treated with a peroxidase chemiluminescent substrate and exposed to film for an appropriate exposure time. Inhibition may be measured relative to untreated controls.

Compound	IC50 [1] [µM]	IC50 [2] [µM]	IC50 [3] [µM]
O=C(O)[C@H](CSCc1ccccc1)Nc1nc(Nc2ccc(C(F)(F)F)cc2)nc(-c2ccc(Cl)cc2)n1 [Compound 15, (R)-3-Benzylsulfanyl-2-[4-(4-chlorophenyl)-6-(4-trifluoromethylphenylamino)-[1,3,5]triazin-2-yl-amino]propionic acid]	1.9		
O=C(O)[C@H](CSCc1ccccc1)Nc1nc(Nc2ccc(C(F)(F)F)cc2)nc(-c2ccccc2F)n1 [Compound 28, (R)-3-Benzylsulfanyl-2-[4-(2-fluorophenyl)-6-(4-trifluoromethylphenylamino)-[1,3,5]triazin-2-yl-amino]propionic acid]	6.7	> 100	
O=C(O)[C@H](CSCc1ccccc1)Nc1nc(Nc2ccc(C(F)(F)F)cc2)nc(-c2ccccc2)n1 [Compound 24, (R)-3-Benzylsulfanyl-2-[4-phenyl-6-(4-trifluoromethylphenylamino)[1,3,5]triazin-2-yl-amino]propionic acid]	4.4		
CC(C)Oc1ccc(-c2nc(Nc3ccc(C(F)(F)F)cc3)nc(N[C@@H](CSCc3ccccc3)C(=O)O)n2)cc1 [Compound 22, (R)-3-Benzylsulfanyl-2-[4-(4-isopropoxyphenyl)-6-(4-trifluoromethyl-phenylamino)[1,3,5]triazin-2-yl-amino]propionic acid]	4.1		
CN(C)c1ccc(-c2nc(Nc3ccc(C(F)(F)F)cc3)nc(N[C@@H](CSCc3ccccc3)C(=O)O)n2)cc1 [Compound 30, (R)-3-Benzylsulfanyl-2-[4-(4-dimethylaminophenyl)-6-(4-trifluoromethyl-phenylamino)[1,3,5)triazin-2-yl-amino]propionic acid]	8.5		
O=C(O)[C@H](CSCc1ccccc1)Nc1nc(Nc2ccc(C(F)(F)F)cc2)nc(-c2ccc(OC(F)(F)F)cc2)n1 [Compound 19, (R)-3-Benzylsulfanyl-2-[4-(4-trifluoromethoxyphenyl)-6-(4-trifluoromethyl-phenylamino)[1,3,5]triazin-2-yl-amino]propionic acid]	3.2		
O=C(O)[C@H](CSCc1ccccc1)Nc1nc(Nc2ccc(C(F)(F)F)cc2)nc(-c2ccc(Oc3ccccc3)cc2)n1 [Compound 12, (R)-3-Benzylsulfanyl-2-[4-(4-phenoxyphenyl)-6-(4-trifluoromethylphenylamino)[1,3,5]triazin-2-yl-amino]propionic acid]	1.1	> 100	
O=C(O)C(Cc1ccc(Cl)cc1)Nc1nc(Nc2ccc(C(F)(F)F)cc2)nc(-c2ccc(F)cc2)n1 (stereo not drawn) [Compound 27, 3-(4-Chlorophenyl)-2-[4-(4-fluorophenyl)-6-(4-trifluoromethylphenylamino)-[1,3,5]triazin-2-yl-amino]propionic acid]	6.1		> 100
O=C(O)[C@H](CSCc1ccccc1)Nc1nc(Nc2ccc(C(F)(F)F)cc2)nc(-c2cccc3ccccc23)n1 [Compound 18, (R)-3-Benzylsulfanyl-2-[4-naphthalen-1-yl-6-(4-trifluoromethylphenylamino)-[1,3,5]triazin-2-yl-amino]propionic acid]	2.5		
O=C(O)[C@H](CSCc1ccccc1)Nc1nc(Nc2ccc(C(F)(F)F)cc2)nc(-c2ccc(O)cc2)n1 [Compound 31, (R)-3-Benzylsulfanyl-2-[4-(4-hydroxyphenyl)-6-(4-trifluoromethylphenylamino)-[1,3,5]triazin-2-yl-amino]propionic acid]	9.1		
O=C(O)[C@H](CSCc1ccccc1)Nc1nc(Nc2ccc(C(F)(F)F)cc2)nc(-c2ccc3ccccc3c2)n1 [Compound 20, (R)-3-Benzylsulfanyl-2-[4-naphthalen-2-yl-6-(4-trifluoromethylphenylamino)-[1,3,5]triazin-2-yl-amino]propionic acid]	3.3	> 100	
O=C(O)[C@H](CSCc1ccccc1)Nc1nc(Nc2ccc(C(F)(F)F)cc2)nc(-c2cc(F)cc(F)c2)n1 [Compound 29, (R)-3-Benzylsulfanyl-2-[4-(3,5-difluorophenyl)-6-(4-trifluoromethylphenylamino)[1,3,5]triazin-2-yl-amino]propionic acid]	7.4		
O=C(O)[C@H](CSCc1ccccc1)Nc1nc(Nc2ccc(C(F)(F)F)cc2)nc(-c2cccc(C(F)(F)F)c2)n1 [Compound 21, (R)-3-Benzylsulfanyl-2-[4-(3-trifluoromethylphenyl)-6-(4-trifluoromethyl-phenylamino)[1,3,5]triazin-2-yl-amino]propionic acid]	4.1		
O=C(O)[C@H](CS(=O)(=O)Cc1ccccc1)Nc1nc(-c2ccc(F)cc2)nc(N2CCc3ccccc3C2)n1 [Compound 11, (R)-2-[4-(3,4-Dihydro-1H-isoquinolin-2-yl)-6-(4-fluorophenyl)[1,3,5]triazin-2yl-amino]-3-phenyl-methanesulfonyl propionic acid]	86		> 100
O=C(O)[C@H](CSCc1ccccc1)Nc1nc(Nc2ccc(C(F)(F)F)cc2)nc(-c2ccc(F)cc2)n1 [Compound 25, (R)-3-Benzylsulfanyl-2-[4-(4-fluorophenyl)-6-(4-trifluoromethylphenylamino)-[1,3,5]triazin-2-yl-amino]propionic acid]	4.7		
O=C(O)[C@H](CSCc1ccccc1)Nc1nc(Nc2ccc(C(F)(F)F)cc2)nc(-c2ccc(C(F)(F)F)cc2)n1 [Compound 16, (R)-3-Benzylsulfanyl-2-[4-(4-trifluoromethylphenyl)-6-(4-trifluoromethyl-phenylamino)[1,3,5]triazin-2-yl-amino]propionic acid]	2		
O=C(O)[C@H](CSCc1ccccc1)Nc1nc(Nc2ccc(C(F)(F)F)cc2)nc(-c2ccc(Br)cc2)n1 [Compound 14, (R)-3-Benzylsulfanyl-2-[4-(4-bromophenyl)-6-(4-trifluoromethylphenylamino)-[1,3,5]triazin-2-yl-amino]propionic acid]	1.7		
O=C(O)[C@H](CSCc1ccccc1)Nc1nc(Nc2ccc(C(F)(F)F)cc2)nc(-c2ccc(Cl)c(Cl)c2)n1 [Compound 13, (R)-3-Benzylsulfanyl-2-[4-(3,4-dichlorophenyl)-6-(4-trifluoromethylphenylamino)-[1,3,5]triazin-2-yl-amino]propionic acid]	1.25		
O=C(O)[C@H](C[S+]([O-])Cc1ccccc1)Nc1nc(-c2ccc(F)cc2)nc(N2CCc3ccccc3C2)n1 (stereo partly drawn) [Compound 9, (R)-2-[4-(3,4-Dihydro-1H-isoquinolin-2-yl)-6-(4-fluorophenyl)[1,3,5]triazin-2-yl-amino]-3-phenylmethanesulfinylpropionic acid]	42.6		> 100
O=C(O)[C@H](CSCc1ccccc1)Nc1nc(Nc2ccc(C(F)(F)F)cc2)nc(-c2cccc(F)c2)n1 [Compound 23, (R)-3-Benzylsulfanyl-2-[4-(3-fluorophenyl)-6-(4-trifluoromethylphenylamino)-[1,3,5]triazin-2-yl-amino]propionic acid]	4.2		
O=C(O)[C@H](CSCc1ccccc1)Nc1nc(Nc2ccc(C(F)(F)F)cc2)nc(-c2ccccc2Oc2ccccc2)n1 [Compound 17, (R)-3-Benzylsulfanyl-2-[4-(2-phenoxyphenyl)-6-(4-trifluoromethylphenylamino)[1,3,5]triazin-2-yl-amino]propionic acid]	2.5		
